Key:
[1] = background statement on known drugs; cited from earlier work
[2] = formalin pain model; assay type: in vivo; conditions: s.c. test drug 30 min or 2 h before the test
Text: The formalin pain model is a well-established animal model of persistent somatic pain (Dubuisson, D. and Dennis, S. G. Pain 4, 1977, 161-174). It has been described as a model of clinical inflammatory pain (Tjølsen, A. and Hole, K, In: Dickenson, A. H. and Besson, J.-M. R., Editors, 1997, The Pharmacology of Pain, Springer-Verlag, Berlin, 1-20). Formalin injected subcutaneously in a hind paw produces initially a local stimulation of the nociceptors; this is referred to as phase 1. This is followed by inflammatory processes and nerve sensitization (phase 2). The latter phase models the neuropathic pain condition. A number of drugs are active in the model, e.g. morphine and in particular antiepileptic drugs (e.g. gabapentin, lamotrigine, carbamazepine) that have shown beneficial effects in clinical neuropathic states. However, these treatments are accompanied by troublesome side effects. The non-steroid antiinflammatory drugs (NSAIDs) that are used for treatment of inflammatory processes in tissue and have relatively weak effects on neuropathic pain conditions have weak activity in the formalin model.
Fifty microliters of 2.5% formalin were administered subcutaneously (s.c.) into the plantar region of the right hind-paw. […] The total time the animal spent licking, biting or shaking the injected paw was recorded. […]

Row | Compound | activity in the formalin model [1] | inhibition of the pain response in phase 1 ([2]; phase 1 (0-5 min after formalin injection)) | inhibition of the pain response in phase 2 ([2]; phase 2 (20-30 min after formalin injection))
1 | CN1CC[C@]23c4c5ccc(O)c4O[C@H]2[C@@H](O)C=C[C@H]3[C@H]1C5 [morphine] | active | – | –
2 | NC(=O)N1c2ccccc2C=Cc2ccccc21 [carbamazepine] | active | – | –
3 | Nc1nnc(-c2cccc(Cl)c2Cl)c(N)n1 [lamotrigine] | active | – | –
4 | NCC1(CC(=O)O)CCCCC1 [gabapentin] | active | – | –
5 | Oc1noc2c1CCNC2 [gaboxadol] | – | potent and dose dependent inhibition of the pain response in phase 1 | potently inhibited the pain response in phase 2, in a dose dependent manner

Source: US20050288371A1, “Treatment of neuropathic pain, fibromyalgia or rheumatoid arthritis” (H. Lundbeck A/S, priority 2004, published 2005)
